Among the data in patent US20240228459A1 (Boundless Bio, Inc., priority 2022, published 2024) are IC50 values, retold here.

For test [1], the target named is PLK1 (Homo sapiens, UniProt P53350). Description: PLK1 activity (known assay). Type of test: biochemical. As for the experimental part:
(§1) The Wee1 pCDK1 and PLK1 activities were determined using known assays.

Test [2] addresses Wee1 (Homo sapiens, UniProt P30291). Description: Wee1 pCDK1 activity (known assay). Type of test: cell-based. As for the experimental part:
as §1

Structures are written as SMILES. Bounds are passed on as bounds.

PLK1, sequence (P53350 whole entry, species assumed): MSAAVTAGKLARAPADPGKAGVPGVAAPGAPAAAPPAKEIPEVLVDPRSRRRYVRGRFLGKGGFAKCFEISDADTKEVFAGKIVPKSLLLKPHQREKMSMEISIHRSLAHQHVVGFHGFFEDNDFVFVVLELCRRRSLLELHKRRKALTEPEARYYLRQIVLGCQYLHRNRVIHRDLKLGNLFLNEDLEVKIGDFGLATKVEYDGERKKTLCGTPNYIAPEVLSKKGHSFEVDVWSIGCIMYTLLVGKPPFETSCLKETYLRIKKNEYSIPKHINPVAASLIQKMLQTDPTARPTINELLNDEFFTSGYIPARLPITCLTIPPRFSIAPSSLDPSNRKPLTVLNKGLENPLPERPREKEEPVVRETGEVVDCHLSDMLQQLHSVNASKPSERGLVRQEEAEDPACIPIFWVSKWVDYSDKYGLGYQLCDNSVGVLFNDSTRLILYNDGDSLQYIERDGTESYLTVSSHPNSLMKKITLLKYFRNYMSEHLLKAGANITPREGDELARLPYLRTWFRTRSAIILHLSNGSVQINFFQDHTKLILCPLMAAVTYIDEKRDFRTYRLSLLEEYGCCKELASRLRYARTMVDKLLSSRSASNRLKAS
Wee1, sequence (P30291 whole entry, species assumed): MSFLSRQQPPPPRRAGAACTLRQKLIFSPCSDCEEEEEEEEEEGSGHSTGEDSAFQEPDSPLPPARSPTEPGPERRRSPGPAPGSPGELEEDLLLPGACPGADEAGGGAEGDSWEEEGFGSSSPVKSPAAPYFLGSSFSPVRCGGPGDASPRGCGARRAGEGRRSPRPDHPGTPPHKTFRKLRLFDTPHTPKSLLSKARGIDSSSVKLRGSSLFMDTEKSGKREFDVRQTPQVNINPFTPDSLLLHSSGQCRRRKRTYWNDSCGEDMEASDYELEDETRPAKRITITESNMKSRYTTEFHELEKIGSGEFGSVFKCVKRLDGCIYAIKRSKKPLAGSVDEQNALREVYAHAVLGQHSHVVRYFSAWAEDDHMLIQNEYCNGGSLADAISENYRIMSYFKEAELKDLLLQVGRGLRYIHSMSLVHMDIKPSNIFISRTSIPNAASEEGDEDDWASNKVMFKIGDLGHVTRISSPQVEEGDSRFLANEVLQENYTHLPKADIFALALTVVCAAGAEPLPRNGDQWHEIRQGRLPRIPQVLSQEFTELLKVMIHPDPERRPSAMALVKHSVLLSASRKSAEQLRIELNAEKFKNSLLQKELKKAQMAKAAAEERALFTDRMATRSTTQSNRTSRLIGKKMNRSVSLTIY

Regarding `C[C@@H]1CN(C)CCN1c1ccc(Nc2ncc(C#N)c(Nc3cccc(N4CCOC4=O)n3)n2)cc1` (racemic) [Example 10, 4-[[6-(2-oxooxazolidin-3-yl)-2-pyridyl]amino]-2-[4-[rac-(2R)-2,4-dimethylpiperazin-1-yl]anilino]pyrimidine-5-carbonitrile], the IC50 (in general, the point on the concentration scale where inhibition reaches its midpoint) is more than 1000 nM in test [1] and 100 to 250 nM in test [2].
As to `CCC1(O)CCc2ccc(Nc3nc(Nc4ccc(N5C[C@@H](C)N[C@@H](C)C5)cc4)ncc3C#N)nc21` (mixture of isomers) [Example 32, 4-[(7-ethyl-7-hydroxy-5,6-dihydrocyclopenta[b]pyridin-2-yl)amino]-2-[4-[rac-(3R,5S)-3,5-dimethylpiperazin-1-yl]anilino]pyrimidine-5-carbonitrile], the IC50 in test [1] was not above 100 nM; in test [2], 100 to 250 nM.
In the same order, the values of `CCC1(O)CCc2ccc(Nc3nc(Nc4ccc(N5C[C@@H](C)N(C)[C@@H](C)C5)cc4)ncc3C#N)nc21` (mixture of isomers) [Example 53, 4-[(7-ethyl-7-hydroxy-5,6-dihydrocyclopenta[b]pyridin-2-yl)amino]-2-[4-[rac-(3R,5S)-3,4,5-trimethylpiperazin-1-yl]anilino]pyrimidine-5-carbonitrile] are not above 100 nM and 100 to 250 nM.
In the case of `C[C@H]1CN(C)CCN1c1ccc(Nc2ncc(C#N)c(Nc3ccc4c(n3)C(C)(O)CC4)n2)cc1` (mixture of isomers) [Example 60, 4-[(7-hydroxy-7-methyl-5,6-dihydrocyclopenta[b]pyridin-2-yl)amino]-2-[4-[rac-(2S)-2,4-dimethylpiperazin-1-yl]anilino]pyrimidine-5-carbonitrile], the IC50 in test [1] and in test [2] was 500 to 1000 nM in each case.
In the case of `CCC1(O)CCc2ccc(Nc3nc(Nc4ccc(C5CCN(C)CC5)c(C)c4)ncc3C#N)nc21` (single isomer, unassigned) [Example 21], the IC50 in test [1] and in test [2] was not above 100 nM in each case.
With `CCC1(O)CCc2ccc(Nc3nc(Nc4ccc(C5CCN(C)CC5)c(C)c4)ncc3C#N)nc21` (single isomer, unassigned) [Example 22], the results for the IC50 in test [1] and in test [2] were 100 to 250 nM and 250 to 500 nM, respectively.
In the same order, the values of `CCC1(O)CCc2ccc(Nc3nc(Nc4ccc5c(c4)CCN(C)C5(C)C)ncc3C#N)nc21` (single isomer, unassigned) [Example 27] are more than 1000 nM and not above 100 nM.
Consider `CCC1(O)CCc2ccc(Nc3nc(Nc4ccc5c(c4)CCN(C)C5(C)C)ncc3C#N)nc21` (single isomer, unassigned) [Example 28], for which the IC50 in test [1] was more than 1000 nM; in test [2], 250 to 500 nM.
For `CCC1(O)CCc2ccc(Nc3nc(Nc4ccc(N5C6CCC5CN(C)C6)cc4)ncc3C#N)nc21` (single isomer, unassigned) [Example 37], in that order: more than 1000 nM and more than 1000 nM.
In the same order, the values of `CCC1(O)CCc2ccc(Nc3nc(Nc4ccc(N5C6CCC5CN(C)C6)cc4)ncc3C#N)nc21` (single isomer, unassigned) [Example 38] are 250 to 500 nM and 250 to 500 nM.
For `CCC1(O)CCCc2ccc(Nc3nc(Nc4ccc(N5CCN(C)CC5)cc4)ncc3C#N)nc21` (stereo not drawn) [Example 1, 4-[(8-ethyl-8-hydroxy-6,7-dihydro-5H-quinolin-2-yl)amino]-2-[4-(4-methylpiperazin-1-yl)anilino]pyrimidine-5-carbonitrile], in that order: not above 100 nM and 100 to 250 nM.
In the case of `CCCC1(O)CCc2ccc(Nc3nc(Nc4ccc(N5CCN(C)CC5)cc4)ncc3C#N)nc21` (stereo not drawn) [Example 2, 4-[(7-hydroxy-7-propyl-5,6-dihydrocyclopenta[b]pyridin-2-yl)amino]-2-[4-(4-methylpiperazin-1-yl)anilino]pyrimidine-5-carbonitrile], the IC50 in test [1] and in test [2] was not above 100 nM throughout.
Compound `CN1CCN(c2ccc(Nc3ncc(C#N)c(Nc4cccc(-n5ccccc5=O)n4)n3)cc2)CC1` [Example 3, 2-[4-(4-methylpiperazin-1-yl)anilino]-4-[[6-(2-oxo-1-pyridyl)-2-pyridyl]amino]pyrimidine-5-carbonitrile] showed an IC50 in test [2] of 500 to 1000 nM.
For the compound `COC1(C)CCc2ccc(Nc3nc(Nc4ccc(N5CCN(C)CC5)cc4)ncc3C#N)nc21` (stereo not drawn) [Example 4, 4-[(7-methoxy-7-methyl-5,6-dihydrocyclopenta[b]pyridin-2-yl)amino]-2-[4-(4-methylpiperazin-1-yl)anilino]pyrimidine-5-carbonitrile], the IC50 was not above 100 nM in test [1] and 250 to 500 nM in test [2].
In the case of `CN1CCN(c2ccc(Nc3ncc(C#N)c(Nc4cccc(N5CCCC5=O)n4)n3)cc2)CC1` [Example 5, 2-[4-(4-methylpiperazin-1-yl)anilino]-4-[[6-(2-oxopyrrolidin-1-yl)-2-pyridyl]amino]pyrimidine-5-carbonitrile], the concentration for half-maximal inhibition (IC50) was 250 to 500 nM in test [1] and 100 to 250 nM in test [2].
In test [2], `CCN1CCCc2ccc(Nc3nc(Nc4ccc(N5CCN(C)CC5)cc4)ncc3C#N)nc21` [Example 6, 4-[(8-ethyl-6,7-dihydro-5H-1,8-naphthyridin-2-yl)amino]-2-[4-(4-methylpiperazin-1-yl)anilino]pyrimidine-5-carbonitrile] registered an IC50 of 500 to 1000 nM.
In the case of `CN1CCN(c2ccc(Nc3ncc(C#N)c(Nc4cccc(N5CCCC5)n4)n3)cc2)CC1` [Example 7, 2-[4-(4-methylpiperazin-1-yl)anilino]-4-[(6-pyrrolidin-1-yl-2-pyridyl)amino]pyrimidine-5-carbonitrile], the half-maximal inhibitory concentration (IC50) in test [1] is not above 100 nM; in test [2], 100 to 250 nM.
In the case of `CN1CCN(c2ccc(Nc3ncc(C#N)c(Nc4ccc5c(n4)C(C)(O)CC5)n3)cc2)CC1` (stereo not drawn) [Example 8, 4-[(7-hydroxy-7-methyl-5,6-dihydrocyclopenta[b]pyridin-2-yl)amino]-2-[4-(4-methylpiperazin-1-yl)anilino]pyrimidine-5-carbonitrile], the half-inhibitory concentration (IC50) is not above 100 nM in test [1] and 100 to 250 nM in test [2].
In the same order, the values of `C[C@H]1CN(C)CCN1c1ccc(Nc2ncc(C#N)c(Nc3cccc(N4CCOC4=O)n3)n2)cc1` [Example 9, 4-[[6-(2-oxooxazolidin-3-yl)-2-pyridyl]amino]-2-[4-[(2S)-2,4-dimethylpiperazin-1-yl]anilino]pyrimidine-5-carbonitrile] are more than 1000 nM and 100 to 250 nM.
`Cc1cc(Nc2ncc(C#N)c(Nc3cccc(N4CCOC4=O)n3)n2)ccc1C1CCN(C)CC1` [Example 11, 2-[3-methyl-4-(1-methyl-4-piperidyl)anilino]-4-[[6-(2-oxooxazolidin-3-yl)-2-pyridyl]amino]pyrimidine-5-carbonitrile] returned an IC50 in test [2] of 100 to 250 nM.
As for `CN1CCc2cc(Nc3ncc(C#N)c(Nc4cccc(N5CCOC5=O)n4)n3)ccc2C1` [Example 12, 2-[(2-methyl-3,4-dihydro-1H-isoquinolin-6-yl)amino]-4-[[6-(2-oxooxazolidin-3-yl)-2-pyridyl]amino]pyrimidine-5-carbonitrile], the IC50 in test [1] is more than 1000 nM; in test [2] it was not above 100 nM.
For `CN1CCc2cc(Nc3ncc(C#N)c(Nc4cccc(N5CCOC5=O)n4)n3)cc(Cl)c2C1` [Example 13, 2-[(8-chloro-2-methyl-3,4-dihydro-1H-isoquinolin-6-yl)amino]-4-[[6-(2-oxooxazolidin-3-yl)-2-pyridyl]amino]pyrimidine-5-carbonitrile], in that order: more than 1000 nM and not above 100 nM.
In the same order, the values of `CCC1(O)CCc2ccc(Nc3nc(Nc4ccc(N5CCN(C)CC5)nc4)ncc3C#N)nc21` (stereo not drawn) [Example 14, 4-[(7-ethyl-7-hydroxy-5,6-dihydrocyclopenta[b]pyridin-2-yl)amino]-2-[[6-(4-methylpiperazin-1-yl)-3-pyridyl]amino]pyrimidine-5-carbonitrile] are not above 100 nM and more than 1000 nM.
In the case of `CCC1(O)CCc2ccc(Nc3nc(Nc4ccc(N5CCN(C)CC5)cc4)ncc3C#N)nc21` (stereo not drawn) [Example 15, 4-[(7-ethyl-7-hydroxy-5,6-dihydrocyclopenta[b]pyridin-2-yl)amino]-2-[4-(4-methylpiperazin-1-yl)anilino]pyrimidine-5-carbonitrile], the IC50 in test [1] was not above 100 nM; in test [2], 250 to 500 nM.
As to `CCC1(O)CCc2ccc(Nc3nc(Nc4ccc(N5CCN(C)CC5)c(C)c4)ncc3C#N)nc21` (stereo not drawn) [Example 16, 4-[(7-ethyl-7-hydroxy-5,6-dihydrocyclopenta[b]pyridin-2-yl)amino]-2-[3-methyl-4-(4-methylpiperazin-1-yl)anilino]pyrimidine-5-carbonitrile], the IC50 in test [1] was not above 100 nM; in test [2] it was 100 to 250 nM.
For `CCC1(O)CCc2ccc(Nc3nc(Nc4ccc(N5CCNCC5)c(C)c4)ncc3C#N)nc21` (stereo not drawn) [Example 17, 4-[(7-ethyl-7-hydroxy-5,6-dihydrocyclopenta[b]pyridin-2-yl)amino]-2-(3-methyl-4-piperazin-1-yl-anilino)pyrimidine-5-carbonitrile], in that order: not above 100 nM and not above 100 nM.
For `CCC1(O)CCc2ccc(Nc3nc(Nc4ccc(C5CCNCC5)c(C)c4)ncc3C#N)nc21` (stereo not drawn) [Example 18, 4-[(7-ethyl-7-hydroxy-5,6-dihydrocyclopenta[b]pyridin-2-yl)amino]-2-[3-methyl-4-(4-piperidyl)anilino]pyrimidine-5-carbonitrile], in that order: not above 100 nM and 250 to 500 nM.
Consider `CCC1(O)CCc2ccc(Nc3nc(Nc4ccc(C5CCN(CCO)CC5)c(C)c4)ncc3C#N)nc21` (stereo not drawn) [Example 19, 4-[(7-ethyl-7-hydroxy-5,6-dihydrocyclopenta[b]pyridin-2-yl)amino]-2-[4-[1-(2-hydroxyethyl)-4-piperidyl]-3-methyl-anilino]pyrimidine-5-carbonitrile], for which the figures for the IC50 in test [1] and in test [2] were not above 100 nM and 250 to 500 nM, respectively.
In test [2], `Cc1cc(Nc2ncc(C#N)c(Nc3cccc(N4CCCC4=O)n3)n2)cc2c1CNCC2` [Example 77, 2-[(8-methyl-1,2,3,4-tetrahydroisoquinolin-6-yl)amino]-4-[[6-(2-oxopyrrolidin-1-yl)-2-pyridyl]amino]pyrimidine-5-carbonitrile] had an IC50 of 500 to 1000 nM.
